Assay results published in patent US12077506B2, “Indane derivatives as hypoxia inducible factor-2(α) inhibitors” (priority 2019, dated 2024).

Biological target: HIF-2α (Homo sapiens (Human), UniProt Q99814)
Assay: VEGF ELISA Assay
Format: cell-based
Conditions: not given
Procedure: The ability of the disclosed compounds to inhibit HIF-2α was measured by determining VEGF expression in 786-O cells. About 7500 786-O cells were seeded into each well of a 96-well, white, clear bottom plate (07-200-566, Fisher Scientific) with 200 ul growth medium. Four hours later, compounds were dispensed into wells by Tecan D300e digital dispenser with starting concentration of 10 uM and ½ log of dilution down to 1 nM as final concentration. Each concentration of treatment was performed in duplicate. About 20 hours later, medium was removed and fresh medium was added, followed by compounds treatment as described above. After 24 hours, cell culture medium was collected to determine VEGF concentration using an ELISA kit (R&D systems, cat #DVE00) following the manufacturer's instruction.
The EC50 was calculated by GraphPad Prism using the dose-response-inhibition (four parameter) equation. The plate with cells was then subjected to CellTiter-Glo luminescence cell viability assay (Promega) to determine the effect of these compounds on cell numbers after the above treatment.

Chain of HIF-2α (Q99814 whole entry): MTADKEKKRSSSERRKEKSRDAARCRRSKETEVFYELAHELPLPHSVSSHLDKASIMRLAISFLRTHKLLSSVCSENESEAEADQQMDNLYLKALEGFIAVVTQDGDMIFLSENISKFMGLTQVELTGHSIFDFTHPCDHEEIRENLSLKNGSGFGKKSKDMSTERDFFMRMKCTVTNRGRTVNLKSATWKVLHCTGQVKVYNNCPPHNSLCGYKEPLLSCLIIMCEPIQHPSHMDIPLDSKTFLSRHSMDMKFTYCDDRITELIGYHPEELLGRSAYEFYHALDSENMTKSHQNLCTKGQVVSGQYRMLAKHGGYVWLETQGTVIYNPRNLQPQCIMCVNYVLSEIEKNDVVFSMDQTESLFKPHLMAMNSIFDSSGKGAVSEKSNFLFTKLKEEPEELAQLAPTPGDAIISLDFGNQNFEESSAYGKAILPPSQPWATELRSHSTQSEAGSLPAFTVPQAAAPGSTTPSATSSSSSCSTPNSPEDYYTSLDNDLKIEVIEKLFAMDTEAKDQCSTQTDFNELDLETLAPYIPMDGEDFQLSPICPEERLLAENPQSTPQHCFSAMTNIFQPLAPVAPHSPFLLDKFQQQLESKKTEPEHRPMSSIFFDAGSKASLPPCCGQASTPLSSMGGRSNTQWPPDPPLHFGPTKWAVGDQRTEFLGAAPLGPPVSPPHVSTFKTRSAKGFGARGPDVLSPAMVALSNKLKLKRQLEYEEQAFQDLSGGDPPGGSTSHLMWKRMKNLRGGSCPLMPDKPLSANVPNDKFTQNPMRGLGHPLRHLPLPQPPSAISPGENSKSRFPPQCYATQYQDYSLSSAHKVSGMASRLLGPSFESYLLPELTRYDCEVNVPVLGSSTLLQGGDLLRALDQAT

Point of comparison: `[2H]C1(O)c2c(ccc(Oc3cncc(F)c3)c2C#N)C(F)(F)C1(F)F` (stereo not shown) [I-14, 1,1,2,2-tetrafluoro-5-((5-fluoropyridin-3-yl)oxy)-3-hydroxy-2,3-dihydro-1H-indene-4-carbonitrile-3-d], EC50 183 nM. Against it:
- [2H][C@@]1(O)c2c(ccc(Oc3cc(F)cc(C#N)c3)c2C#N)C(F)(F)C1(F)F [I-13b, (R)-5-(3-cyano-5-fluorophenoxy)-1,1,2,2-tetrafluoro-3-hydroxy-2,3-dihydro-1H-indene-4-carbonitrile-3-d] — 15-fold lower, 12 nM
- [2H][C@]1(O)c2c(ccc(Oc3cc(F)cc(C#N)c3)c2C#N)C(F)(F)C1(F)F [I-13a, (S)-5-(3-cyano-5-fluorophenoxy)-1,1,2,2-tetrafluoro-3-hydroxy-2,3-dihydro-1H-indene-4-carbonitrile-3-d] — 2.5-fold higher, 464 nM

Same assay, conditions: VEGF expression in 786-O cells, ELISA of culture medium; read-out: EC50

Point of comparison: `CC1(O)c2c(ccc(Oc3cc(F)cc(C#N)c3)c2C#N)C(F)(F)C1(F)F` (stereo not shown) [I-15, 5-(3-cyano-5-fluorophenoxy)-1,1,2,2-tetrafluoro-3-hydroxy-3-methyl-2,3-dihydro-1H-indene-4-carbonitrile], EC50 287 nM. Against it:
- C=Cc1c(Oc2cc(F)cc(C#N)c2)ccc2c1C(C)(O)C(F)(F)C2(F)F (stereo not shown) [I-17, 3-fluoro-5-((1,1,2,2-tetrafluoro-3-hydroxy-3-methyl-4-vinyl-2,3-dihydro-1H-inden-5-yl)oxy)benzonitrile] — 20-fold higher, 5770 nM
- N#Cc1cc(F)cc(Oc2ccc3c(c2C(F)F)C(O)C(F)(Cl)C3(F)F)c1 (stereo not shown) [I-20, 3-((2-chloro-4-(difluoromethyl)-1,1,2-trifluoro-3-hydroxy-2,3-dihydro-1H-inden-5-yl)oxy)-5-fluorobenzonitrile] — 14-fold lower, 20 nM
- CC1(O)c2c(ccc(Oc3cc(F)cc(C#N)c3)c2Br)C(F)(F)C1(F)F (stereo not shown) [I-16, 3-((4-bromo-1,1,2,2-tetrafluoro-3-hydroxy-3-methyl-2,3-dihydro-1H-inden-5-yl)oxy)-5-fluorobenzonitrile] — 7.2-fold higher, 2070 nM
- CC1(O)c2c(ccc(Oc3cc(F)cc(C#N)c3)c2C(F)F)C(F)(F)C1(F)F (stereo not shown) [I-2, 3-((4-(difluoromethyl)-1,1,2,2-tetrafluoro-3-hydroxy-3-methyl-2,3-dihydro-1H-inden-5-yl)oxy)-5-fluorobenzonitrile] — 2.7-fold higher, 770 nM
- OC1c2c(ccc(OC3CC(F)(F)C3)c2C(F)F)C(F)(F)C1(F)F (stereo not shown) [I-8, 6-(3,3-difluorocyclobutoxy)-7-(difluoromethyl)-2,2,3,3-tetrafluoro-2,3-dihydro-1H-inden-1-ol] — 2.7-fold lower, 105 nM
- Cc1cc(C#N)cc(Oc2ccc3c(c2C(F)F)C(O)C(F)(F)C3(F)F)c1 (stereo not shown) [I-5, 3-((4-(difluoromethyl)-1,1,2,2-tetrafluoro-3-hydroxy-2,3-dihydro-1H-inden-5-yl)oxy)-5-methylbenzonitrile] — 4.3-fold lower, 67 nM
- N#Cc1cc(Cl)cc(Oc2ccc3c(c2C(F)F)C(O)C(F)(F)C3(F)F)c1 (stereo not shown) [I-6, 3-chloro-5-((4-(difluoromethyl)-1,1,2,2-tetrafluoro-3-hydroxy-2,3-dihydro-1H-inden-5-yl)oxy)benzonitrile] — 11-fold lower, 27 nM
- N#Cc1cc(F)cc(Oc2ccc3c(c2C(F)F)C(N)C(F)(F)C3(F)F)c1 (stereo not shown) [I-3, 3-((3-amino-4-(difluoromethyl)-1,1,2,2-tetrafluoro-2,3-dihydro-1H-inden-5-yl)oxy)-5-fluorobenzonitrile] — 1.7-fold lower, 166 nM
- N#Cc1cncc(Oc2ccc3c(c2C(F)F)C(O)C(F)(F)C3(F)F)c1 (stereo not shown) [I-9, 5-((4-(difluoromethyl)-1,1,2,2-tetrafluoro-3-hydroxy-2,3-dihydro-1H-inden-5-yl)oxy)nicotinonitrile] — 2-fold lower, 147 nM
- OC1c2c(ccc(Oc3cc(F)cc(Cl)c3)c2C(F)F)C(F)(F)C1(F)F (stereo not shown) [I-7, 6-(3-chloro-5-fluorophenoxy)-7-(difluoromethyl)-2,2,3,3-tetrafluoro-2,3-dihydro-1H-inden-1-ol] — 36-fold lower, 8 nM
- N#Cc1cc(F)cc(Oc2ccc3c(c2C(F)F)C(O)C(F)(F)C3(F)F)c1 (stereo not shown) [I-1, 3-((4-(difluoromethyl)-1,1,2,2-tetrafluoro-3-hydroxy-2,3-dihydro-1H-inden-5-yl)oxy)-5-fluorobenzonitrile] — 48-fold lower, 6 nM
- 7-(difluoromethyl)-6-(3,5-difluorophenoxy)-2,2,3,3-tetrafluoro-2,3-dihydro-1H-inden-1-ol [I-4] — 72-fold lower, 4 nM
- OC1c2c(ccc(Oc3cncc(F)c3)c2C(F)F)C(F)(F)C1(F)F (stereo not shown) [I-10, 7-(difluoromethyl)-2,2,3,3-tetrafluoro-6-((5-fluoropyridin-3-yl)oxy)-2,3-dihydro-1H-inden-1-ol] — 5.3-fold lower, 54 nM
- CCc1c(Oc2cc(F)cc(C#N)c2)ccc2c1C(C)(O)C(F)(F)C2(F)F (stereo not shown) [I-18, 3-((4-ethyl-1,1,2,2-tetrafluoro-3-hydroxy-3-methyl-2,3-dihydro-1H-inden-5-yl)oxy)-5-fluorobenzonitrile] — 8.7-fold higher, 2500 nM
- N#Cc1cc(F)cc(Oc2ccc3c(c2C(F)F)C(O)C(F)(F)C3F)c1 (stereo not shown) [I-19, 3-((4-(difluoromethyl)-1,2,2-trifluoro-3-hydroxy-2,3-dihydro-1H-inden-5-yl)oxy)-5-fluorobenzonitrile] — 1.9-fold lower, 151 nM
